Structures can show the parent of a compound that is named as a salt.
Legend:
rat 5-HT7 receptor = rat 5-HT7 receptor (Rattus norvegicus (Rat), UniProt P32305); test: r5-HT7 binding assay, competitive radioligand binding with [3H]5-CT
Outline: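 Competition against [3H]5-CT on rat 5-HT7 HEK-293 membranes; Ki from radioactivity. Functional: 10 min compound, 100 nM 5-CT for 20 min, cAMP immunoassay after lysis.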

human SERT = human SERT (Homo sapiens (Human), UniProt P31645); test: human SERT binding assay with [3H]-citalopram on HEK-293 membranes; settings: read-out: hSERT binding Ki
Chain of human SERT (P31645 whole entry): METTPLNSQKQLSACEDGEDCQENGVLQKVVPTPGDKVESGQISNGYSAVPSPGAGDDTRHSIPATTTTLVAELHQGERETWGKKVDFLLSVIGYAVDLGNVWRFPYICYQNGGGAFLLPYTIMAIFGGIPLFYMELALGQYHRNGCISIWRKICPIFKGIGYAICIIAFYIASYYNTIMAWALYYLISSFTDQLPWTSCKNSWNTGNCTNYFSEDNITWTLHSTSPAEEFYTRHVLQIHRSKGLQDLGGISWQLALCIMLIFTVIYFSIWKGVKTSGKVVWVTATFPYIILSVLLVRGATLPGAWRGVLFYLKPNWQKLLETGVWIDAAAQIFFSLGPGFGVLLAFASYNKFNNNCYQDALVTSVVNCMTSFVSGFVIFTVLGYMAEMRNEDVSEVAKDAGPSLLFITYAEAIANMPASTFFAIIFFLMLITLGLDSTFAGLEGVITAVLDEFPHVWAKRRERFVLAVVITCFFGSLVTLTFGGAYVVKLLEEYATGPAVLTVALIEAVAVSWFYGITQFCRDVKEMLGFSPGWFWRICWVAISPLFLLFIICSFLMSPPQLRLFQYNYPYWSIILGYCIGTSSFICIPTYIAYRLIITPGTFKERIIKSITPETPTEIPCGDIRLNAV
Method: Receptor binding was performed using membrane fractions prepared from the HEK-293 cell line recombinantly expressing rat 5-HT7 receptors (NCBI accession NM_022938). Compound affinity for the rat 5-HT7 receptor subtype was evaluated by competitive radioligand binding assays using 5-carboxamido[^3H]tryptamine ([^3H]5-CT) (Amersham Biosciences, cat. 90000403) detection. HitHunter™ cAMP assays are in-vitro based competitive immunoassays. The assay was performed on the HEK-293 cell line stably transfected with r5-HT7 receptor. Cells were pre-incubated with test compounds for 10 minutes. For antagonist testing, the cells were then challenged with 100 nM 5-CT for 20 minutes. Cells were then lysed and cAMP measured according to manufacturers protocol (Amersham, cat. NET791250UC) or [^3H]mesulergine (Amersham, cat. TRK1041). The assay was performed on membranes prepared from HEK-293 cells stably transfected with h5-HT6. Following centrifugation, membranes were resuspended and incubated for 60 min at room temperature with 1.7 nM [^3H]LSD in the presence of increasing concentration of test compounds. Nonspecific binding was defined in the presence of 10 μM clozapine (Tocris, cat. TRK1068). Homogenized HEK-293 membranes expressing the human SERT were incubated in 50 mM Tris-HCl (pH 7.5), 120 mM NaCl, 5 mM KCl with [^3H]-citalopram (3 nM) with or without test compounds. Nonspecific binding was determined in the presence of 10 μM fluoxetine. Radioactivity readouts and Ki values were performed as previously described for r5-HT7. […] Compounds were assayed in their free form or as salts, as indicated in the Examples section above.

[1] = rat 5-HT7 receptor, HEK-293 membranes

Chain of rat 5-HT7 receptor (P32305 1-435): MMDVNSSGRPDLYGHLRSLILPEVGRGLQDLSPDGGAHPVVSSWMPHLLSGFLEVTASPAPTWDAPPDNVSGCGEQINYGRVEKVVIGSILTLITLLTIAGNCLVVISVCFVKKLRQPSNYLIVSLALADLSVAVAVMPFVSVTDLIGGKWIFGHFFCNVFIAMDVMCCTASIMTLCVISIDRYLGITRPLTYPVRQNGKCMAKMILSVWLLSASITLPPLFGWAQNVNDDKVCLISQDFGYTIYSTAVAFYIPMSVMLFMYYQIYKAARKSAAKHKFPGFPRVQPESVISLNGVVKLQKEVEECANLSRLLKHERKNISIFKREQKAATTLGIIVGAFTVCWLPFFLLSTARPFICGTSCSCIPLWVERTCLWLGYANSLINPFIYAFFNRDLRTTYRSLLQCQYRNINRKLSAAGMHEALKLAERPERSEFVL

SMILES	Ki (rat 5-HT7 receptor; [1])	Ki (human SERT)	Ki (rat 5-HT7 receptor; rat 5-HT7, HEK-293 membranes)
CC(Oc1ccc(Cl)cc1OC1CN(Cc2ccccc2)C1)c1cccc(C(F)(F)F)c1 (racemic) [Example 108, (±)-1-Benzyl-3-[5-chloro-2-[1-(3-trifluoromethyl-phenyl)-ethoxy]-phenoxy]-azetidine]	36 nM	5000 nM	–
CC(Oc1ccc(Cl)cc1OC1CN(C)C1)c1cccc(C(F)(F)F)c1 (racemic) [Example 109, (±)-3-[5-Chloro-2-[1-(3-trifluoromethyl-phenyl)-ethoxy]-phenoxy]-1-methyl-azetidine]	5 nM	2900 nM	–
CC(Oc1ccc(Br)cc1OC1CNC1)c1cccc(OC(F)(F)F)c1 (racemic) [Example 110, (±)-3-[5-Bromo-2-[1-(3-trifluoromethoxy-phenyl)-ethoxy]-phenoxy]-azetidine]	90 nM	554 nM	–
CC(Oc1ccc(Cl)cc1OC1CNC1)c1cccc(F)c1 (racemic) [Example 115, (±)-3-[5-Chloro-2-[1-(3-fluoro-phenyl)-ethoxy]-phenoxy]-azetidine]	33 nM	202 nM	–
CC(Oc1ccc(Cl)cc1OC1CNC1)c1ccc(F)c(C(F)(F)F)c1 (racemic) [Example 117, (±)-3-[5-Chloro-2-[1-(4-fluoro-3-trifluoromethyl-phenyl)-ethoxy]-phenoxy]-azetidine]	41 nM	71 nM	–
CC(Oc1ccc(Cl)cc1OC1CNC1)c1ccccc1F (racemic) [Example 121, (±)-3-[5-Chloro-2-[1-(2-fluoro-phenyl)-ethoxy]-phenoxy]-azetidine]	33 nM	164 nM	–
CC(Oc1ccc(Cl)cc1OC1CNC1)c1ccc(Cl)cc1 (racemic) [Example 123, (±)-3-[5-Chloro-2-[1-(4-chloro-phenyl)-ethoxy]-phenoxy]-azetidine]	42 nM	25 nM	–
CC(Oc1ccc(Cl)cc1OC1CNC1)c1ccc(F)cc1 (racemic) [Example 124, (±)-3-[5-Chloro-2-[1-(4-fluoro-phenyl)-ethoxy]-phenoxy]-azetidine]	43 nM	20 nM	–
CC(Oc1ccc(Cl)cc1OC1CCNCC1)c1cccc(Cl)c1 (racemic) [Example 136, (±)-4-[5-Chloro-2-[1-(3-chloro-phenyl)-ethoxy]-phenoxy]-piperidine]	29 nM	98 nM	–
CC(Oc1ccc(Cl)cc1OC1CNC1)c1ccccc1 (racemic) [Example 145, (±)-3-[5-Chloro-2-(1-phenyl-ethoxy)-phenoxy]-azetidine]	40 nM	773 nM	–
Cc1ccc2c(c1)CCC2Oc1ccc(Br)cc1OC1CNC1 (racemic) [Example 155, (±)-3-[5-Bromo-2-(5-methyl-indan-1-yloxy)-phenoxy]-azetidine]	19 nM	45 nM	–
C[C@@H]1[C@@H](Oc2ccc(Cl)cc2OC2CNC2)CN1Cc1ccccc1 (racemic) [Example 223, (±)-3-[5-Chloro-2-(trans-1-benzyl-2-methyl-azetidin-3-ol)-phenoxy]-azetidine]	–	9000 nM	145 nM
C[C@@H]1[C@H](Oc2cc(Br)ccc2OCc2cccc(F)c2)CN1Cc1ccccc1 (relative stereo) [Example 220, cis-1-Benzyl-3-[5-bromo-2-(3-fluoro-benzyloxy)-phenoxy]-2-methyl-azetidine]	–	789 nM	493 nM
C[C@H]1[C@H](Oc2cc(Br)ccc2OCc2cccc(F)c2)CN1Cc1ccccc1 (relative stereo) [Example 221, trans-1-Benzyl-3-[5-bromo-2-(3-fluoro-benzyloxy)-phenoxy]-2-methyl-azetidine]	–	5000 nM	147 nM
Clc1cccc(COc2cc(Br)ccc2OC2CNC2)c1 [Example 22, 3-[4-Bromo-2-(3-chloro-benzyloxy)-phenoxy]-azetidine]	125 nM	28 nM	–
CSc1cccc(COc2ccc(Cl)cc2OC2CNC2)c1 [Example 26, 3-[5-Chloro-2-(3-methylsulfanyl-benzyloxy)-phenoxy]-azetidine]	25 nM	13 nM	–
CS(=O)(=O)c1cccc(COc2ccc(Cl)cc2OC2CNC2)c1 [Example 27, 3-[5-Chloro-2-(3-methanesulfonyl-benzyloxy)-phenoxy]-azetidine]	229 nM	1680 nM	–
Clc1ccc(OCc2csc(-c3cccs3)n2)c(OC2CNC2)c1 [Example 28, 4-[2-(Azetidin-3-yloxy)-4-chloro-phenoxymethyl]-2-thiophen-2-yl-thiazole]	49 nM	683 nM	–
Cc1nc(-c2cccc(COc3ccc(Cl)cc3OC3CNC3)c2)no1 [Example 31, 3-[3-[2-(Azetidin-3-yloxy)-4-chloro-phenoxymethyl]-phenyl]-5-methyl-[1,2,4]oxadiazole hydrochloride]	100 nM	90 nM	–

SMILES	Ki (rat 5-HT7 receptor; [1])	Ki (human SERT)	Ki (rat 5-HT7 receptor; rat 5-HT7, HEK-293 membranes)
FC(F)(F)c1ccccc1COc1ccc(Cl)cc1OC1CNC1 [Example 32, 3-[5-Chloro-2-(2-trifluoromethyl-benzyloxy)-phenoxy]-azetidine]	53 nM	29 nM	–
FC(F)(F)Oc1ccc(COc2ccc(Cl)cc2OC2CNC2)cc1 [Example 42, 3-[5-Chloro-2-(4-trifluoromethoxy-benzyloxy)-phenoxy]-azetidine]	35 nM	578 nM	–
FC(F)(F)c1ccc(COc2ccc(Cl)cc2OC2CNC2)cc1 [Example 43, 3-[5-Chloro-2-(4-trifluoromethyl-benzyloxy)-phenoxy]-azetidine]	15 nM	86 nM	–
FC(F)(F)c1ccc(COc2ccc(Cl)cc2OC2CNC2)c(C(F)(F)F)c1 [Example 45, 3-[2-(2,4-Bis-trifluoromethyl-benzyloxy)-5-chloro-phenoxy]-azetidine]	3160 nM	197 nM	–
Fc1ccc(COc2ccc(Cl)cc2OC2CNC2)cc1C(F)(F)F [Example 47, 3-[5-Chloro-2-(4-fluoro-3-trifluoromethyl-benzyloxy)-phenoxy]-azetidine]	11 nM	21 nM	–
Clc1ccc(OCc2ccccn2)c(OC2CNC2)c1 [Example 51, 2-[2-(Azetidin-3-yloxy)-4-chloro-phenoxymethyl]-pyridine]	387 nM	86 nM	–
Clc1ccc(OCc2cccnc2)c(OC2CNC2)c1 [Example 52, 3-[2-(Azetidin-3-yloxy)-4-chloro-phenoxymethyl]-pyridine]	110 nM	89 nM	–
Clc1ccc(OCc2ccncc2)c(OC2CNC2)c1 [Example 53, 4-[2-(Azetidin-3-yloxy)-4-chloro-phenoxymethyl]-pyridine]	260 nM	464 nM	–
FC(F)(F)c1ccc(COc2ccc(Br)cc2OC2CCNCC2)o1 [Example 64, 4-[5-Bromo-2-(5-trifluoromethyl-furan-2-ylmethoxy)-phenoxy]-piperidine]	17 nM	43 nM	–
CN1CC(Oc2cc(Cl)ccc2OCc2cc(CO)c(C(F)(F)F)o2)C1 [Example 77]	153 nM	5000 nM	–
Clc1ccc(OCc2ccc3occc3c2)c(OC2CNC2)c1 [Example 83, 3-[2-(Benzofuran-5-ylmethoxy)-5-chloro-phenoxy]-azetidine]	16 nM	24 nM	–
Clc1ccc(OCc2ccc3ncsc3c2)c(OC2CNC2)c1 [Example 84, 6-[2-(Azetidin-3-yloxy)-4-chloro-phenoxymethyl]-benzothiazole]	34 nM	61 nM	–
Cn1nnc2ccc(COc3ccc(Cl)cc3OC3CNC3)cc21 [Example 85, 6-[2-(Azetidin-3-yloxy)-4-chloro-phenoxymethyl]-1-methyl-1H-benzotriazole]	95 nM	404 nM	–
FC1(F)Oc2ccc(COc3ccc(Cl)cc3OC3CNC3)cc2O1 [Example 86, 3-[5-Chloro-2-(2,2-difluoro-benzo[1,3]dioxol-5-ylmethoxy)-phenoxy]-azetidine]	38 nM	121 nM	–
Clc1ccc(OCc2cc3ccccc3o2)c(OC2CNC2)c1 [Example 89, 3-[2-(Benzofuran-2-ylmethoxy)-5-chloro-phenoxy]-azetidine]	25 nM	242 nM	–
C[C@H](Oc1ccc(Cl)cc1OC1CNC1)c1cccc(C(F)(F)F)c1 [Example 102, (S)-3-[5-Chloro-2-[1-(3-trifluoromethyl-phenyl)-ethoxy]-phenoxy]-azetidine trifluoroacetate]	376 nM	954 nM	–
O=C(c1ccc(Cl)cc1)c1ccc(Cl)cc1OC1CNC1 [Example 297, [2-(Azetidin-3-yloxy)-4-chloro-phenyl]-(4-chloro-phenyl)-methanone]	–	–	150 nM
O=C(c1cccc(Cl)c1)c1ccc(Cl)cc1OC1CNC1 [Example 298, [2-(Azetidin-3-yloxy)-4-chloro-phenyl]-(3-chloro-phenyl)-methanone]	–	–	102 nM

Reference: US9981909B2 (Janssen Pharmaceutica NV, priority 2008, dated 2018)
